Data: patent US11484539B2, “Compounds and their uses for alleviating menopause-associated symptoms” (Estetra SPRL, priority 2018, dated 2022)

System: post-menopausal women
Test: Weekly frequency of moderate to severe VMS, dose-finding study
Format: in vivo
Conditions: for Difference with placebo, LS adjusted mean, absolute change in weekly frequency of moderate to severe VMS / Difference with placebo, LS adjusted mean, relative change in weekly frequency of moderate to severe VMS: 5 mg E4 vs placebo; for LS adjusted mean change from baseline in weekly frequency of moderate to severe VMS / LS adjusted mean relative change (%) from baseline in weekly frequency of moderate to severe VMS: 10 mg E4
Excerpt: To determine the Minimum Effective Dose (MED), firstly the selection criteria required that patients presented at least 7 moderate to severe VMS/day or at least 50 moderate to severe VMS/week in the week preceding randomization. Secondly, a placebo group was included in a double-blind fashion. Thirdly, the total patient number was such that statistical significance could be obtained between separate arms of the study. Fourthly, the absolute change from baseline in weekly frequency of moderate to severe VMS was taken into account. An analysis of covariance (ANCOVA) was performed based on the untransformed change in weekly frequency of moderate to severe VMS from baseline. Finally, the change in severity from baseline was evaluated. For this, the Severity Scoring System of VMS was documented by the subjects as follows: • a score of Mild (1) for a sensation of heat without sweating; • a score of Moderate (2) for a sensation of heat with sweating/the subject is able to continue activity; and • a score of Severe (3) for a sensation of heat with sweating/which causes cessation of activity.
Enrolment was approximately 18 months. Individual subject participation was up to 27 weeks: up to 6 weeks pre-screening and washout, up to 4 weeks screening and run-in period, up to 91 days (13 weeks) of E4/placebo treatment followed by 2 weeks (14 days) of progestin therapy and a Follow up visit 1 week after completion of progestin therapy in non-hysterectomised subjects only.
To define the minimum effective dose (MED) of the oral dose of E4 by evaluating changes in frequency and in severity of moderate to severe vasomotor symptoms (VMS).
This was a prospective, multicentre, randomised, placebo-controlled, double-blinded, dose-finding study.
Eligible subjects were hysterectomised and non-hysterectomised post-menopausal women aged 40 to 65 years, inclusive, presenting at least 7 moderate to severe hot flushes/day or at least 50 moderate to severe hot flushes/week.
The subjects have met all of the following inclusion criteria at the randomization visit. These criteria were assessed during the screening period: • 1. Women aged 40 to 65 years, inclusive, presenting at least 7 moderate to severe hot flushes/day or at least 50 moderate to severe hot flushes/week in the week preceding randomization. • 2. Body Mass Index (BMI) between 18.0 and 35.0 kg/m^2, inclusive. • 3. Post-menopausal status defined as levels of follicle stimulating hormone (FSH) >40 IU/L and: • amenorrhoea for at least 12 consecutive months or, • amenorrhoea for at least 6 months with estradiol (E2)<20 pg/mL or, • at least 6 weeks post-surgical bilateral oophorectomy with or without hysterectomy with a copy of the pathology report or a statement on letterhead from the subject's physician documenting both ovaries were removed is required. • 4. For non-hysterectomised women: intact uterus with bi-layer endometrial thickness […] on TVUS. • 5. Negative pregnancy test. • 6. Good physical and mental health, in the judgement of the Principal Investigator (PI), on the basis of medical, surgical and gynaecological history, physical examination, gynaecological examination, clinical laboratory, and vital signs. • 7. Subject has provided signed and dated written informed consent before admission to the study. • 8. Subject is able to understand and comply with the protocol requirements, instructions, and protocol-stated restrictions. Exclusion Criteria:
All treatments (Estetrol, hereinafter, E4, [2.5 mg, 5 mg, 10 mg, 15 mg] capsule) were administered once daily (QD) per os for at least 12 consecutive weeks until the last biological assessments (Day 91 maximum) had been performed.
In order to analyse the data recorded in this study, treatment groups have been compared using an ANCOVA (analysis of covariance) with respect to the change in weekly frequency of moderate to severe VMS from baseline to weeks 4 and 12. […]

[1] = week 4, ANCOVA with study centre
[2] = week 12, ANCOVA with study centre

SMILES: C[C@]12CC[C@@H]3c4ccc(O)cc4CC[C@H]3[C@@H]1[C@@H](O)[C@@H](O)[C@@H]2O [E4, 1,3,5 (10)-estratrien-3,15alpha,16alpha,17beta-tetrol]
- Relative change (% from baseline) in weekly frequency of moderate to severe VMS, mean (5 mg E4 QD per os, week 2): −33%
- Mean change from baseline in weekly frequency of moderate to severe VMS (5 mg E4 QD per os, week 3): −24.38
- Relative change (% from baseline) in weekly frequency of moderate to severe VMS, mean (5 mg E4 QD per os, week 3): −38%
- Mean change from baseline in weekly frequency of moderate to severe VMS (5 mg E4 QD per os, week 4): −27.57
- Relative change (% from baseline) in weekly frequency of moderate to severe VMS, mean (5 mg E4 QD per os, week 4): −43%
- Mean change from baseline in weekly frequency of moderate to severe VMS (5 mg E4 QD per os, week 5): −30.70
- Relative change (% from baseline) in weekly frequency of moderate to severe VMS, mean (5 mg E4 QD per os, week 5): −47%
- Mean change from baseline in weekly frequency of moderate to severe VMS (5 mg E4 QD per os, week 6): −38.02
- Relative change (% from baseline) in weekly frequency of moderate to severe VMS, mean (5 mg E4 QD per os, week 6): −57%
- Mean change from baseline in weekly frequency of moderate to severe VMS (5 mg E4 QD per os, week 7): −38.23
- Relative change (% from baseline) in weekly frequency of moderate to severe VMS, mean (5 mg E4 QD per os, week 7): −57%
- Mean change from baseline in weekly frequency of moderate to severe VMS (5 mg E4 QD per os, week 8): −38.55
- Relative change (% from baseline) in weekly frequency of moderate to severe VMS, mean (5 mg E4 QD per os, week 8): −57%
- Mean change from baseline in weekly frequency of moderate to severe VMS (5 mg E4 QD per os, week 9): −39.34
- Relative change (% from baseline) in weekly frequency of moderate to severe VMS, mean (5 mg E4 QD per os, week 9): −59%
- Mean change from baseline in weekly frequency of moderate to severe VMS (5 mg E4 QD per os, week 10): −39.83
- Relative change (% from baseline) in weekly frequency of moderate to severe VMS, mean (5 mg E4 QD per os, week 10): −60%
- Mean change from baseline in weekly frequency of moderate to severe VMS (5 mg E4 QD per os, week 11): −41.46
- Relative change (% from baseline) in weekly frequency of moderate to severe VMS, mean (5 mg E4 QD per os, week 11): −63%
- Mean change from baseline in weekly frequency of moderate to severe VMS (5 mg E4 QD per os, week 12): −40.60
- Relative change (% from baseline) in weekly frequency of moderate to severe VMS, mean (5 mg E4 QD per os, week 12): −62%
- Difference with placebo, LS adjusted mean, absolute change in weekly frequency of moderate to severe VMS [1]: 6.359
- Difference with placebo, LS adjusted mean, relative change in weekly frequency of moderate to severe VMS [1]: 0.06833
- Difference with placebo, LS adjusted mean, absolute change in weekly frequency of moderate to severe VMS (week 4, without site effect): 5.781
- Difference with placebo, LS adjusted mean, relative change in weekly frequency of moderate to severe VMS (week 4, without site effect): 0.05854
- Difference with placebo, LS adjusted mean, absolute change in weekly frequency of moderate to severe VMS [2]: 3.054
- Difference with placebo, LS adjusted mean, relative change in weekly frequency of moderate to severe VMS [2]: 0.03978
- Difference with placebo, LS adjusted mean, absolute change in weekly frequency of moderate to severe VMS (week 12, without site effect): 2.918
- Difference with placebo, LS adjusted mean, relative change in weekly frequency of moderate to severe VMS (week 12, without site effect): 0.03671
- LS adjusted mean change from baseline in weekly frequency of moderate to severe VMS [1]: −35.37
- LS adjusted mean relative change (%) from baseline in weekly frequency of moderate to severe VMS [1]: -54.5%
- LS adjusted mean change from baseline in weekly frequency of moderate to severe VMS (week 4, without site effect): −35.87
- LS adjusted mean relative change (%) from baseline in weekly frequency of moderate to severe VMS (week 4, without site effect): -55.5%
- LS adjusted mean change from baseline in weekly frequency of moderate to severe VMS [2]: −45.84
- LS adjusted mean relative change (%) from baseline in weekly frequency of moderate to severe VMS [2]: -70%
- LS adjusted mean change from baseline in weekly frequency of moderate to severe VMS (week 12, without site effect): −46.53
- LS adjusted mean relative change (%) from baseline in weekly frequency of moderate to severe VMS (week 12, without site effect): -71.7%
- Mean change from baseline in weekly frequency of moderate to severe VMS (10 mg E4 QD per os, week 1): −13.37
- Relative change (% from baseline) in weekly frequency of moderate to severe VMS, mean (10 mg E4 QD per os, week 1): −21%
- Mean change from baseline in weekly frequency of moderate to severe VMS (10 mg E4 QD per os, week 2): −23.47
- Relative change (% from baseline) in weekly frequency of moderate to severe VMS, mean (10 mg E4 QD per os, week 2): −37%
- Mean change from baseline in weekly frequency of moderate to severe VMS (10 mg E4 QD per os, week 3): −31.34
- Relative change (% from baseline) in weekly frequency of moderate to severe VMS, mean (10 mg E4 QD per os, week 3): −48%
- Mean change from baseline in weekly frequency of moderate to severe VMS (10 mg E4 QD per os, week 4): −36.38
- Relative change (% from baseline) in weekly frequency of moderate to severe VMS, mean (10 mg E4 QD per os, week 4): −55%
- Mean change from baseline in weekly frequency of moderate to severe VMS (10 mg E4 QD per os, week 5): −39.07
- Relative change (% from baseline) in weekly frequency of moderate to severe VMS, mean (10 mg E4 QD per os, week 5): −60%
- Mean change from baseline in weekly frequency of moderate to severe VMS (10 mg E4 QD per os, week 6): −42.56
- Relative change (% from baseline) in weekly frequency of moderate to severe VMS, mean (10 mg E4 QD per os, week 6): −65%
- Mean change from baseline in weekly frequency of moderate to severe VMS (10 mg E4 QD per os, week 7): −43.30
- Relative change (% from baseline) in weekly frequency of moderate to severe VMS, mean (10 mg E4 QD per os, week 7): −66%
